The values below come from article PMC4425356, “An Extended Surface Loop on Toxoplasma gondii Apical Membrane Antigen 1 (AMA1) Governs Ligand Binding Selectivity” (PLoS ONE, 2015).

The Kd is a measure of binding affinity in units of concentration. As usually defined, the stoichiometry N is a count of units in the complex or per binding partner.

“Also recorded” adds a separate entry of the source. Like-named read-outs stand apart in the source and are kept apart here. Ends that are not written are not given here.

Experiment [1] addresses TgAMA1ΔDIIloop (TgAMA1 with the mobile portion of the DII loop replaced with a short Gly-Ser linker) (Toxoplasma gondii) (UniProt B6KAM0). Kind of experiment: ITC; TgAMA1 or TgAMA1ΔDIIloop in the sample cell (10 to 16 μM for nanomolar affinity, 35 to 75 μM for micromolar affinity), TRX-fused peptides (110 to 180 μM or 360 to 1180 μM) added in 17 injections of 2 μL; 25 °C; HBS (20 mM HEPES pH 7.5, 150 mM NaCl); one-site model. (ITC needs no label: the signal is the heat of the interaction.)

In experiment [2] the target is Toxoplasma gondii apical membrane antigen 1 (TgAMA1) (Toxoplasma gondii). The experiment is described as above.
Experiment [3] deals with TgAMA1. Kind of experiment: Isothermal titration calorimetry of TRX-fused RON2D3 peptides titrated into TgAMA1. The note with it: ITC, 25 °C; for Kd / -TΔS / ΔG / Molar Ratio (RON2/AMA1) / ΔH: TgAMA1, TRX-fused peptides; for Molar Ratio (RON2/AMA1) / ΔH: representative of at least two. The experiment is classed as binding, Toxoplasma gondii. The procedure: (§1) For ITC experiments, TgAMA1 was produced and purified as previously reported. Thioredoxin fusions of TgRON2D3, TgRON2L1D3, TgRON2L2D3, EtRON2D3 and PfRON2D3 were produced in E. coli BL21 cells and purified by nickel-affinity and SEC.
(§2) Purified TgAMA1, TgAMA1ΔDIIloop, and TRX fusions of TgRON2D3, TgRON2L1D3 TgRON2L2D3, EtRON2D3, and PfRON2D3 were dialyzed against HBS at 4 °C. All ITC experiments were carried out at 25 °C on a MicroCal iTC200 instrument (GE Healthcare). […] Data were processed using Origin software (MicroCal) and the dissociation constants (Kd) were determined using a one-site model. Values are derived from a single experiment, but are representative of at least two independent experiments.

Experiment [4] relates to TgAMA1ΔDIIloop. Kind of experiment: Isothermal titration calorimetry of TRX-fused RON2D3 peptides titrated into TgAMA1ΔDIIloop (DII loop replaced by Gly-Ser linker). The experiment is classed as binding, Toxoplasma gondii. The note with it: for binding to TgAMA1ΔDIIloop (in words) / Kd / -TΔS / ΔG / Molar Ratio (RON2/AMA1) / ΔH: ITC, 25 °C; for binding to TgAMA1ΔDIIloop (in words) / -TΔS / ΔG / Molar Ratio (RON2/AMA1) / ΔH: HBS pH 7.5; for Kd / -TΔS / ΔG / Molar Ratio (RON2/AMA1) / ΔH: TgAMA1ΔDIIloop, TRX-fused peptides; for Kd: HBS (20 mM HEPES pH 7.5, 150 mM NaCl), one-site model, representative of at least two independent experiments; for Kd / Molar Ratio (RON2/AMA1) / ΔH: single experiment; for Molar Ratio (RON2/AMA1) / ΔH: representative of at least two.
From the text: A sequence encoding the mature ectoplasmic region of TgAMA1 (amino acids 64 to 484, TGME49_255260 [24]) with the twenty residues of the DII loop disordered in the TgAMA1-TgRON2D3 co-structure replaced by a seven residue Gly-Ser linker (TgAMA1ΔDIIloop) was synthesized and subcloned into a modified pAcGP67b vector (Pharmingen) with a C-terminal thrombin cleavage site and hexahistidine tag. TgAMA1ΔDIIloop encoding virus for insect cell protein production was generated and amplified using established protocols. Following a 65 hr infection the supernatant was harvested, concentrated, and TgAMA1ΔDIIloop was purified by nickel batch binding as previously described. The hexahistidine tag was removed by thrombin cleavage and the protein was further purified by size exclusion chromatography (SEC) (Superdex 16/60 75) in HEPES buffered saline (HBS: 20 mM HEPES pH 7.5, 150 mM NaCl).
as §1, §2

The subject of experiment [5] is TgAMA1 or TgAMA1ΔDIIloop. Kind of experiment: Isothermal titration calorimetry, TRX negative control. The experiment is classed as binding, Toxoplasma gondii. The note with it: ITC, 25 °C, HBS pH 7.5. The method, then:
as §2

For experiment [6], the system named is TgAMA1ΔDIIloop. Put plainly: Native gel electrophoresis of TgAMA1ΔDIIloop co-purified with EtRON2D3. The experiment is classed as binding, Toxoplasma gondii. As to conditions: 8–25% gradient native gel, HBS, Coomassie Brilliant Blue; sample co-purified with EtRON2D3. From the text: A sequence encoding a portion of EtRON2D3 (amino acids 1262 to 1297, ETH_00012760) was synthesized and subcloned into a modified pET32a vector (Novagen) incorporating N-terminal hexahistidine and thioredoxin (TRX) tags with a thrombin cleavage site. The fusion protein was produced in E. coli BL21 cells. For crystallization, EtRON2D3-TRX was cleaved to remove the fusion tags and co-purified with TgAMA1ΔDIIloop by SEC in HBS followed by anion exchange chromatography using a Source 30Q column (20 mM HEPES pH 8.0, 10 mM NaCl; elution gradient with 20 mM HEPES pH 8.0, 1 M NaCl) to remove residual TRX tag.
Purified TgAMA1ΔDIIloop and co-purified TgAMA1ΔDIIloop-EtRON2D3 protein samples in HBS were run on an 8–25% gradient native gel using the PhastGel system (GE Healthcare), and protein bands were visualized with Coomassie Brilliant Blue staining.

Regarding “EtRON2D3-TRX (Eimeria tenella RON2 domain 3 peptide, thioredoxin fusion) (from UniProt U6KQJ2 1262-1297)”, the results for the Kd in experiment [1] and in experiment [2] were less than 8 nM and 2200 nM, respectively.
For the substance “TgRON2L1D3 thioredoxin fusion (Toxoplasma gondii RON2L1 domain 3 peptide)”, in experiment [1], the dissociation constant Kd was 46000 nM and the stoichiometry N came to 1.
Regarding “TgRON2D3: RON2 domain 3 peptide of T. gondii, thioredoxin fusion produced in E. coli BL21 (DIVQHMEDIGGAPPVSCVTNEILGVTCAPQAIAKAT; cysteine pairing not given here; also: thioredoxin fusion, end not given here, His tag, end not given here)”, in experiment [3] (HBS pH 7.5), the “binding to TgAMA1 (in words)” value is “bound both TgRON2D3 and EtRON2D3 but only the former with high affinity”; the “-TΔS” value amounted to 5.9 kcal/mol; the ΔG is -11.2 kcal/mol. Further, in experiment [3] (HBS (20 mM HEPES pH 7.5, 150 mM NaCl), one-site model, single experiment, representative of at least two independent experiments, read-out: Kd), the Kd came out at 5.8 ± 2.8 nM. For the same substance, in experiment [3] (HBS pH 7.5, single experiment), the “Molar Ratio (RON2/AMA1)” value was determined as 1.00 ± 0.01 and the ΔH is listed as -17.1 ± 0.2 kcal/mol. Moreover, in experiment [4], the “binding to TgAMA1ΔDIIloop (in words)” value was “bound both TgRON2D3 and EtRON2D3 with high affinity”; the Kd was determined as 3.6 ± 3 nM; the “-TΔS” value came to 10.6 kcal/mol; the ΔG is on record as -11.6 kcal/mol. In experiment [4], the “Molar Ratio (RON2/AMA1)” value is 1.01 ± 0.01 and the ΔH is -22.2 ± 0.2 kcal/mol.
On to “PfRON2D3 thioredoxin fusion (Plasmodium falciparum RON2 domain 3 peptide)”, for which, in experiment [1], the Kd is 1400 nM and the stoichiometry N was determined as 1.
Consider “TRX: thioredoxin, injected as a negative control”, for which the “binding of TRX negative control” value in experiment [5] is recorded as “no detectable binding”.
In experiment [1], “TgRON2L2D3 thioredoxin fusion (Toxoplasma gondii RON2L2 domain 3 peptide)” registered a Kd of 6000 nM and a stoichiometry N of 1.
“TgRON2D3 thioredoxin fusion (Toxoplasma gondii RON2 domain 3 peptide) (from UniProt B6KV60 1297-1332)” showed a Kd in experiment [2] of less than 5.8 nM.
For “EtRON2D3: a portion of EtRON2D3 (amino acids 1262 to 1297, ETH_00012760), Eimeria tenella RON2 peptide (thioredoxin-DITQHLNDSGLGPAVECLENLVVGPVCPAAVVAPAV; not fully specified (bridges); also: disulfide partially formed)”, in experiment [3] (HBS pH 7.5), the “binding to TgAMA1 (in words)” value was “bound both TgRON2D3 and EtRON2D3 but only the former with high affinity”; the “-TΔS” value was -3.0 kcal/mol; the ΔG is given as -7.7 kcal/mol. In addition, the “binding to TgAMA1 (in words)” value in experiment [3] (HBS pH 7.5, listed as EtRON2) is recorded as “showed only weak binding to TgAMA1”. Moreover, in experiment [3] (HBS pH 7.5, rounded value, read-out: affinity (Kd)), the Kd amounted to 2200 nM. Also, in experiment [3] (HBS pH 7.5, single experiment), the “Molar Ratio (RON2/AMA1)” value came out at 1.17 ± 0.02 and the ΔH is listed as -4.7 ± 0.1 kcal/mol. In addition, in experiment [4], the “binding to TgAMA1ΔDIIloop (in words)” value is “bound both TgRON2D3 and EtRON2D3 with high affinity; also recorded: significantly tighter binding to TgAMA1ΔDIIloop relative to TgAMA1”; the Kd turned out to be 8 ± 3.1 nM; the “-TΔS” value is listed as -0.1 kcal/mol; the ΔG is -11.1 kcal/mol. Besides, in experiment [4], the “Molar Ratio (RON2/AMA1)” value turned out to be 0.96 ± 0.01 and the ΔH was -11.0 ± 0.1 kcal/mol. For the same substance, in experiment [4] (listed as EtRON2), the “binding to TgAMA1ΔDIIloop (in words)” value is reported as “bound with high affinity to TgAMA1ΔDIIloop”. Moreover, the “fold tighter binding to TgAMA1ΔDIIloop relative to TgAMA1” value in experiment [4] (ratio of ITC Kd, TgAMA1 (2.2 μM) vs TgAMA1ΔDIIloop (8.0 nM)) is reported as “approximately 275 fold”. Besides, the “native PAGE migration / retention on TgAMA1ΔDIIloop” value in experiment [6] was “altered migration for the sample co-purified with EtRON2D3”.
